Assays:
PKAC-alpha = target: T1, PKAC-alpha (Homo sapiens, UniProt P17612); assay: KinomeScan kinase profiling; assay type: binding
T1 construct: purchased Ambit Biosciences Corp (KinomeScan); host or cells: E. coli host derived from BL21, infected with T7 phage

ABL1 (F317I) = target: T2, ABL1 (F317I) (Homo sapiens, UniProt P00519, F317I); assay: KinomeScan kinase profiling; assay type: binding
T2 construct: host or cells: E. coli host derived from BL21 (T7 phage lysate)

AKT2 = target: T3, AKT2 (Homo sapiens, UniProt P31751); assay: KinomeScan kinase profiling; assay type: binding
T3 construct: host or cells: E. coli host derived from BL21 (T7 phage lysate)

MEK6 = target: T4, MEK6 (Homo sapiens, UniProt P52564); assay: KinomeScan kinase profiling; assay type: binding
T4 construct: host or cells: E. coli derived from BL21, infected with T7 phage

PRKCD = target: T5, PRKCD (Homo sapiens, UniProt Q05655); assay: KinomeScan kinase profiling; assay type: binding
T5 construct: purchased Ambit Biosciences Corp (KinomeScan); host or cells: E. coli host derived from BL21, infected with T7 phage

FGFR1 = target: T6, FGFR1 (Homo sapiens, UniProt P11362); assay: KinomeScan kinase profiling; assay type: binding
T6 construct: host or cells: E. coli host derived from BL21, infected with T7 phage

[1] = Toxicokinetics in the 30 day repeated dose study in beagle dogs; assay type: in vivo
Experimental: The 30 day repeated dose study employed 12 male and 12 female dogs (Marshall's Farm, China). The dogs were acclimatized for a minimum period of 2 weeks and randomly divided into four main groups (G1-G4), each group comprising of 3 dogs per sex. The animals were dosed orally with capsules of NRC-2694A for a period of 30 consecutive days at dose levels of 10 mg/kg b.wt/day (G2-low dose), 20 mg/kg b.wt/day (G3-mid dose) and 40 mg/kg b.wt/day (G4-high dose). […] The control group (G1-0 mg/kg b. wt/day) animals were dosed by oral capsule with placebo.
The study also tracked body weight (weekly), food consumption (daily), opthalmological status (start and end), hematological and biochemical analyses (start and end), toxicokinetics analysis of plasma (start and end). At the end of the study, all dogs were euthanized by a humane and accepted procedure, subjected to a gross post-mortem examination, organ weights (absolute and relative) were determined, and histopathological examination was carried out.
The toxicokinetic parameters viz.

T2 sequence (P00519 whole entry F317I): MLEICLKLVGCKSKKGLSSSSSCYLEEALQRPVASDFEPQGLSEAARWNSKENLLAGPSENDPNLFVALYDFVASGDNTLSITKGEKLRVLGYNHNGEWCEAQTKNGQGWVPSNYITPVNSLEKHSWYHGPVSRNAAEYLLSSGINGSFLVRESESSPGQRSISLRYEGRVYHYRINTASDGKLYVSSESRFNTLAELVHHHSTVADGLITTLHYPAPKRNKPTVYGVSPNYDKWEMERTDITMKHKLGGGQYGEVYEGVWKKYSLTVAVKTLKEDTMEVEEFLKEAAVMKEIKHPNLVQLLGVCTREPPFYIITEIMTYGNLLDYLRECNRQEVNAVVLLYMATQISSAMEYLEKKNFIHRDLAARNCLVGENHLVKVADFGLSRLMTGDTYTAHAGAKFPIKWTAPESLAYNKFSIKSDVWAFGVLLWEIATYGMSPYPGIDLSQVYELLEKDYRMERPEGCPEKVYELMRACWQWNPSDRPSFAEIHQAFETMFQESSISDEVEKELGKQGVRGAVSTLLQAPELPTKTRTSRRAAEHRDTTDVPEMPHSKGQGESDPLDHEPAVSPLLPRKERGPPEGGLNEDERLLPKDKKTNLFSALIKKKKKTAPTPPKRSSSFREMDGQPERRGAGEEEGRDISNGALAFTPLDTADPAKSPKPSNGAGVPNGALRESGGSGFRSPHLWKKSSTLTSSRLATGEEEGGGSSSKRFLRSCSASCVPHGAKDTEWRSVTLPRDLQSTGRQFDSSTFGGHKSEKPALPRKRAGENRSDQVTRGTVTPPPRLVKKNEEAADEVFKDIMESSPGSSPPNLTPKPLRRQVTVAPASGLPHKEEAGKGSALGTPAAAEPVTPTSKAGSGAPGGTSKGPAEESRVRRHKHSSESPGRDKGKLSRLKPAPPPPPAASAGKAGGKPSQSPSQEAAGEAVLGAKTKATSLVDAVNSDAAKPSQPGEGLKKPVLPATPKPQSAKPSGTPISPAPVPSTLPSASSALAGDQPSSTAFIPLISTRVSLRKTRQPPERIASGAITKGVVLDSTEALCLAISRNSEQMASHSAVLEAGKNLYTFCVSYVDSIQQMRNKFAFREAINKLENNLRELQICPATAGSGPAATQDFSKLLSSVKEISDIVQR
T6 sequence (P11362 22-822): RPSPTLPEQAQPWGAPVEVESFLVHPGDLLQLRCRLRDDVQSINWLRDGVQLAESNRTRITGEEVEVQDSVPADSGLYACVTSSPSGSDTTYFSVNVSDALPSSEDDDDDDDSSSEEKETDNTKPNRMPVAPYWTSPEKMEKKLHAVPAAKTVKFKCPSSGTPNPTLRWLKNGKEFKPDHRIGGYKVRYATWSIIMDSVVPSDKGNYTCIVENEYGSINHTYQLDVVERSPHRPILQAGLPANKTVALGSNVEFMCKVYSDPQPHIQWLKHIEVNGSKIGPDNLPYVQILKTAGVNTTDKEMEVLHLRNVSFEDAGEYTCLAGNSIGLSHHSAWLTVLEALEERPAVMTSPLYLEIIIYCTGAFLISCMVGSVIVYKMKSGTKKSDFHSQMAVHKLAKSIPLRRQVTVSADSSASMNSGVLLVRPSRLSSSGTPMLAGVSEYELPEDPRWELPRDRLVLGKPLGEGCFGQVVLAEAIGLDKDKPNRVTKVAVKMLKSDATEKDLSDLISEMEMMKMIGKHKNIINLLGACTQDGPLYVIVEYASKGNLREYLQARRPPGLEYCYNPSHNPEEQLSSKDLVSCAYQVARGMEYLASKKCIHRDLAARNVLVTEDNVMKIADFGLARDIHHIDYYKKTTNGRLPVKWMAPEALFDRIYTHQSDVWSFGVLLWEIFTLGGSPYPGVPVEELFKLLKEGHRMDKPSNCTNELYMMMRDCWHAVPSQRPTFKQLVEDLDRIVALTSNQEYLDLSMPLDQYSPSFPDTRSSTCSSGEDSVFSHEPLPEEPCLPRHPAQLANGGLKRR
T5 sequence (Q05655 whole entry): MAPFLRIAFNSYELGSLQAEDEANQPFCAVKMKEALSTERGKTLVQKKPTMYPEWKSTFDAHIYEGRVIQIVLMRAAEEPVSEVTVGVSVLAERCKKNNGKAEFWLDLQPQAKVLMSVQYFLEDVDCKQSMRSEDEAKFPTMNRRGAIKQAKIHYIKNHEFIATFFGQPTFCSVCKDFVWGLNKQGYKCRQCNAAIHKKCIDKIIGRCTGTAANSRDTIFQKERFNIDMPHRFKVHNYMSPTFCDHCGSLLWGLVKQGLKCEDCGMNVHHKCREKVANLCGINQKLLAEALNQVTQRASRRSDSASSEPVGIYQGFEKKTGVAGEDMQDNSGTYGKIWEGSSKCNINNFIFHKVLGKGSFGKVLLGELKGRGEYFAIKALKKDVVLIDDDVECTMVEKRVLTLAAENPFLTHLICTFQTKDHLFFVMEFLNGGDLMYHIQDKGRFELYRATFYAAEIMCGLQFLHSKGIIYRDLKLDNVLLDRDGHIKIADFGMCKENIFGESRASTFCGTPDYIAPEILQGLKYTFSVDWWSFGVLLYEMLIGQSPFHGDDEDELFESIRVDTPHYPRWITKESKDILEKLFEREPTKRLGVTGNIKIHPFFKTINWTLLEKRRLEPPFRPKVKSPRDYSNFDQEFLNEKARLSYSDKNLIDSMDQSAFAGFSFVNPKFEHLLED
T3 sequence (P31751 whole entry): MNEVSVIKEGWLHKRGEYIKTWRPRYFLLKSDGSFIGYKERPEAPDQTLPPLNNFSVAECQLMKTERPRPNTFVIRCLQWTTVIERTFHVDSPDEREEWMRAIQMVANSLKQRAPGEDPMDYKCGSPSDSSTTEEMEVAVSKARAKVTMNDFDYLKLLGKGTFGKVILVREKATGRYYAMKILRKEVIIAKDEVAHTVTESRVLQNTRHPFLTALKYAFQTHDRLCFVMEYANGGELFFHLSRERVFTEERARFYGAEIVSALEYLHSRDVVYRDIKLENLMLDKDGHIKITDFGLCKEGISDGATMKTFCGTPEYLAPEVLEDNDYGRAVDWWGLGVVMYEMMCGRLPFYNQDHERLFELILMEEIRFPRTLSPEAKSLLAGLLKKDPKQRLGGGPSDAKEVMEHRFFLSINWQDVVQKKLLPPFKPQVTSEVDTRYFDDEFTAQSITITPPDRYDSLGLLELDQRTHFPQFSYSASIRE
T4 sequence (P52564 whole entry): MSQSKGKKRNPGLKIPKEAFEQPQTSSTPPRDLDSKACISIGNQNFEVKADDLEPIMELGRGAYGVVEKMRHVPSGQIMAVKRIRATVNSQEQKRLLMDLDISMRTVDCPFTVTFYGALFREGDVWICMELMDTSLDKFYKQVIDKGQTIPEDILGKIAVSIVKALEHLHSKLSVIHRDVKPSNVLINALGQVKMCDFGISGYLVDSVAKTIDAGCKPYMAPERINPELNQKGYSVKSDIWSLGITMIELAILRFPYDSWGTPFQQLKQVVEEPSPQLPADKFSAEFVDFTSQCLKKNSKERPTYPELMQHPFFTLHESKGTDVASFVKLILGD

SMILES	% Ctrl @ 10000 nM (PKAC-alpha)	% Ctrl @ 10000 nM (ABL1 (F317I))	% Ctrl @ 10000 nM (AKT2)	% Ctrl @ 10000 nM (MEK6)	% Ctrl @ 10000 nM (PRKCD)	% Ctrl @ 10000 nM (FGFR1)	median Tmax ([1]; day 1, female dogs, 10 mg/kg oral)	median Tmax ([1]; day 1, female dogs, 20 mg/kg oral)	median Tmax ([1]; day 1, female dogs, 40 mg/kg oral)	median Tmax ([1]; day 1, male dogs, 10 mg/kg oral)	median Tmax ([1]; day 1, male dogs, 20 mg/kg oral)	median Tmax ([1]; day 1, male dogs, 40 mg/kg oral)	median Tmax ([1]; day 30, female dogs, 10 mg/kg oral)	median Tmax ([1]; day 30, female dogs, 20 mg/kg oral)	median Tmax ([1]; day 30, male dogs, 10 mg/kg oral)	median Tmax ([1]; day 30, male dogs, 20 mg/kg oral)	Cmax, dose dependence ([1]; three dose levels, male and female dogs)
C#Cc1cccc(Nc2ncnc3cc(OC)c(OCCCN4CCOCC4)cc23)c1 [NRC-2694, N-(3-ethylnylphenyl)-7-methoxy-6-[3-(4-morpholinyl)propoxy]-4-quinazolinamine]	100 % Ctrl	48 % Ctrl	100 % Ctrl	75 % Ctrl	84 % Ctrl	64 % Ctrl	–	–	–	–	–	–	–	–	–	–	–
C#Cc1cccc(Nc2ncnc3cc(OC)c(OCCCN4CCOCC4)cc23)c1.Cl [NRC-2694 monohydrochloride, N-(3-ethylnylphenyl)-7-methoxy-6-[3-(4-morpholinyl)propoxy]-4-quinazolinamine mono hydrochloride]	–	–	–	–	–	–	2 h	4 h	4 h	2 h	3 h	2 h	2 h	4 h	2 h	3 h	dose-dependent change
